How the values were obtained:
[1] = biological target: T1, human kinesin spindle protein KSP/Eg5 (Homo sapiens, UniProt P52732); assay: Inhibition of the kinesin spindle protein KSP/Eg5 (ATPase, malachite green); type: biochemical; details: 10 nM KSP motor domain, 500 μM ATP, 2 h RT
T1 construct: The motor domain of the human kinesin spindle protein KSP/Eg5; purchased tebu-bio/Cytoskeleton Inc 027EG01-XL
T1 sequence (P52732 18-359 limits assumed): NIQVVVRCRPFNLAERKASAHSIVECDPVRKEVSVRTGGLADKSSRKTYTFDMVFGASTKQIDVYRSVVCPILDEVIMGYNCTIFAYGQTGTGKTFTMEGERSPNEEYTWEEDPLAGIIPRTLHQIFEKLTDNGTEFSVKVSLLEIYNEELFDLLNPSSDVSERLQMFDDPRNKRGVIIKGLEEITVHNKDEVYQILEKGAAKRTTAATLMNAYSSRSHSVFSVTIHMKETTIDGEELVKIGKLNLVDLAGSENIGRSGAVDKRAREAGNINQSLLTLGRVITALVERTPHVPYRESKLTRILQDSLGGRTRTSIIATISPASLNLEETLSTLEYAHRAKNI
Experimental: C-1b Determination of the Inhibition of the Kinesin Spindle Protein KSP/Eg5 by Selected Examples
The motor domain of the human kinesin spindle protein KSP/Eg5 (from tebu-bio/Cytoskeleton Inc, No. 027EG01-XL) is incubated at a concentration of 10 nM with 50 μg/ml taxol- (from Sigma No. T7191-5MG) stabilized microtubuli (bovine or porcine, from tebu-bio/Cytoskeleton Inc) for 5 min at RT in 15 mM PIPES, pH 6.8 (5 mM MgCl2 and 10 mM DTT, from Sigma). The freshly prepared mixture is aliquoted into a 384-well MTP. The inhibitors to be examined at concentrations of 1.0×10^−6 M to 1.0×10^−13 and ATP (final concentration 500 μM, from Sigma) are then added. Incubation is at RT for 2 h. ATPase activity is detected by detecting the inorganic phosphate formed using malachite green (from Biomol). […] The individual data of the dose-activity curve are eight-fold determinations. The IC50 values are means of three independent experiments.

[2] = Cell permeability, flux assay using Caco-2 cells; details: human, Caco-2
Experimental: C-3 In Vitro Tests for Determining Cell Permeability
The cell permeability of a substance can be investigated by means of in vitro testing in a flux assay using Caco-2 cells [M. D. Troutman and D. R. Thakker, Pharm. […] For this purpose, the cells were cultured for 15-16 days on 24-well filter plates. For the determination of permeation, the respective working example was applied in a HEPES buffer to the cells either apically (A) or basally (B) and incubated for 2 hours. After 0 hours and after 2 hours, samples were taken from the cis and trans compartments. The samples were separated by HPLC (Agilent 1200, Böblingen, Germany) using reverse phase columns.
Of critical importance for toxophores which are released intracellularly is the permeability from B to A [Papp(B-A)] and the ratio of Papp(B-A) to Papp(A-B) (efflux ratio): the lower this permeability, the slower the active and passive transport processes of the substance through the monolayer of Caco-2 cells.

| SMILES | IC50 [1] | Papp B→A at 2 h [2] | efflux ratio at 2 h [2] |
| --- | --- | --- | --- |
| CC(C)(C)[C@H](c1nc(-c2cc(F)ccc2F)cn1Cc1ccccc1)N(CC[C@H](N)C(=O)NCCC(=O)Nc1ccc(N2C(=O)CC(SC[C@H](N)C(=O)O)C2=O)cc1)C(=O)CO (stereo partly drawn) [Example 66, S-(1-{4-[(N-{(2S)-2-Amino-4-[{(1R)-1-[1-benzyl-4-(2,5-difluorophenyl)-1H-imidazol-2-yl]-2,2-dimethylpropyl}(glycoloyl)amino]butanoyl}-beta-alanyl)amino]phenyl}-2,5-dioxopyrrolidin-3-yl)-L-cysteine] | 8.08 nM | 2.7 ×10⁻⁶ cm/s | 12 |
| CC(C)(C)[C@H](c1nc(-c2cc(F)ccc2F)cn1Cc1ccccc1)N(CC[C@H](N)C(=O)N[C@H]1CCC[C@H]1C(=O)NCCN1C(=O)CC(SC[C@H](N)C(=O)O)C1=O)C(=O)CO (stereo partly drawn) [Example 67, S-{1-[2-({[(1R,2S)-2-({(2S)-2-Amino-4-[{(1R)-1-[1-benzyl-4-(2,5-difluorophenyl)-1H-imidazol-2-yl]-2,2-dimethylpropyl}(glycoloyl)amino]butanoyl}amino)cyclopentyl]carbonyl}amino)ethyl]-2,5-dioxopyrrolidin-3-yl}-L-cysteine] | 8.07 nM | 2.5 ×10⁻⁶ cm/s | 15 |
| C[C@H](NC(=O)CCNC(=O)[C@@H](N)CCN(C(=O)CO)[C@@H](c1nc(-c2cc(F)ccc2F)cn1Cc1ccccc1)C(C)(C)C)C(=O)N[C@@H](CCCNC(N)=O)C(=O)Nc1ccc(N2C(=O)CC(SC[C@H](N)C(=O)O)C2=O)cc1 (stereo partly drawn) [Example 68, N-{(2S)-2-Amino-4-[{(1R)-1-[1-benzyl-4-(2,5-difluorophenyl)-1H-imidazol-2-yl]-2,2-dimethylpropyl}(glycoloyl)amino]butanoyl}-beta-alanyl-L-alanyl-N-[4-(3-{[(2R)-2-amino-2-carboxyethyl]sulphanyl}-2,5-dioxopyrrolidin-1-yl)phenyl]-N^5-carbamoyl-L-ornithinamide] | 3.22 nM | 0.18 ×10⁻⁶ cm/s | 1.9 |
| CC(C)[C@H](NC(=O)CCNC(=O)[C@@H](N)CCN(C(=O)CO)[C@@H](c1nc(-c2cc(F)ccc2F)cn1Cc1ccccc1)C(C)(C)C)C(=O)N[C@@H](CCCNC(N)=O)C(=O)Nc1ccc(CC(=O)NCCN2C(=O)CC(SC[C@H](N)C(=O)O)C2=O)cc1 (stereo partly drawn) [Example 69, N-{(2S)-2-Amino-4-[{(1R)-1-[1-benzyl-4-(2,5-difluorophenyl)-1H-imidazol-2-yl]-2,2-dimethylpropyl}(glycoloyl)amino]butanoyl}-beta-alanyl-L-valyl-N-[4-(2-{[2-(3-{[(2R)-2-amino-2-carboxyethyl]sulphanyl}-2,5-dioxopyrrolidin-1-yl)ethyl]amino}-2-oxoethyl)phenyl]-N^5-carbamoyl-L-ornithinamide] | 4.82 nM | 0.15 ×10⁻⁶ cm/s | 2 |
| C[C@H](NC(=O)CCNC(=O)[C@@H](N)CCN(C(=O)CO)[C@@H](c1nc(-c2cc(F)ccc2F)cn1Cc1ccccc1)C(C)(C)C)C(=O)N[C@@H](CCCNC(N)=O)C(=O)Nc1ccc(CC(=O)NCCN2C(=O)CC(SC[C@H](N)C(=O)O)C2=O)cc1 (stereo partly drawn) [Example 70, N-{(2S)-2-Amino-4-[{(1R)-1-[1-benzyl-4-(2,5-difluorophenyl)-1H-imidazol-2-yl]-2,2-dimethylpropyl}(glycoloyl)amino]butanoyl}-beta-alanyl-L-alanyl-N-[4-(2-{[2-(3-{[(2R)-2-amino-2-carboxyethyl]sulphanyl}-2,5-dioxopyrrolidin-1-yl)ethyl]amino}-2-oxoethyl)phenyl]-N^5-carbamoyl-L-ornithinamide] | 3.18 nM | 0.16 ×10⁻⁶ cm/s | 1.9 |
| CC(C)(C)[C@H](c1nc(-c2cc(F)ccc2F)cn1Cc1ccccc1)N(CC[C@H](N)C(=O)NCCOCCOCCOCCC(=O)O)C(=O)CO.O=C(O)C(F)(F)F [Example 71, (15S,19R)-15-Amino-19-[1-benzyl-4-(2,5-difluorophenyl)-1H-imidazol-2-yl]-18-glycoloyl-20,20-dimethyl-14-oxo-4,7,10-trioxa-13,18-diazahenicosan-1-oic acid/trifluoroacetic acid (1:1)] | 1.22 nM | 28 ×10⁻⁶ cm/s | 280 |
| CC(C)[C@H](NC(=O)CCNC(=O)[C@@H](N)CCN(C(=O)CO)[C@@H](c1nc(-c2cc(F)ccc2F)cn1Cc1ccccc1)C(C)(C)C)C(=O)N[C@@H](CCCNC(N)=O)C(=O)O.O=C(O)C(F)(F)F [Example 72, N-{(2S)-2-Amino-4-[{(1R)-1-[1-benzyl-4-(2,5-difluorophenyl)-1H-imidazol-2-yl]-2,2-dimethylpropyl}(glycoloyl)amino]butanoyl}-beta-alanyl-L-valyl-N^5-carbamoyl-L-ornithine/trifluoroacetic acid (1:1)] | 4.85 nM | 0.25 ×10⁻⁶ cm/s | 2.1 |
| C[C@H](NC(=O)CCNC(=O)[C@@H](N)CCN(C(=O)CO)[C@@H](c1nc(-c2cc(F)ccc2F)cn1Cc1ccccc1)C(C)(C)C)C(=O)N[C@@H](CCCNC(N)=O)C(=O)O.O=C(O)C(F)(F)F [Example 73, N-{(2S)-2-Amino-4-[{(1R)-1-[1-benzyl-4-(2,5-difluorophenyl)-1H-imidazol-2-yl]-2,2-dimethylpropyl}(glycoloyl)amino]butanoyl}-beta-alanyl-L-alanyl-N^5-carbamoyl-L-ornithine/trifluoroacetic acid (1:1)] | 4.52 nM | 0.46 ×10⁻⁶ cm/s | 2.7 |
| CC(C)(C)[C@H](c1nc(-c2cc(F)ccc2F)cn1Cc1ccccc1)N(CC[C@H](N)C(=O)NCCC(=O)N[C@@H](Cc1ccc(N)cc1)C(=O)O)C(=O)CO.O=C(O)C(F)(F)F.O=C(O)C(F)(F)F [Example 74, N-{(2S)-2-Amino-4-[{(1R)-1-[1-benzyl-4-(2,5-difluorophenyl)-1H-imidazol-2-yl]-2,2-dimethylpropyl}(glycoloyl)amino]butanoyl}-beta-alanyl-4-amino-L-phenylalanine/trifluoroacetic acid (1:2)] | 6.13 nM | 2.6 ×10⁻⁶ cm/s | 15 |
| CC(C)(C)[C@H](c1nc(-c2cc(F)ccc2F)cn1Cc1ccccc1)N(CC[C@H](N)C(=O)O)C(=O)CO.O=C(O)C(F)(F)F [Example 76, (2S)-2-Amino-4-[{(1R)-1-[1-benzyl-4-(2,5-difluorophenyl)-1H-imidazol-2-yl]-2,2-dimethylpropyl}(glycoloyl)amino]butanoic acid/trifluoroacetic acid (1:1)] | 2.33 nM | 5.5 ×10⁻⁶ cm/s | 27 |
| CC(C)(C)[C@H](c1nc(-c2cc(F)ccc2F)cn1Cc1ccccc1)N(CC[C@H](N)CN)C(=O)CO.O=C(O)C(F)(F)F [Example 78, Trifluoroacetic acid/N-{(1R)-1-[1-benzyl-4-(2,5-difluorophenyl)-1H-imidazol-2-yl]-2,2-dimethylpropyl}-N-[(3S)-3,4-diaminobutyl]-2-hydroxyacetamide (1:1)] | 4.95 nM | 14 ×10⁻⁶ cm/s | 44 |
| CC(C)(C)[C@H](c1nc(-c2cc(F)ccc2F)cn1Cc1ccccc1)N(CC[C@H](N)C(=O)NCCN)C(=O)CO.O=C(O)C(F)(F)F.O=C(O)C(F)(F)F [Example 80, Trifluoroacetic acid/(2S)-2-amino-N-(2-aminoethyl)-4-[{(1R)-1-[1-benzyl-4-(2,5-difluorophenyl)-1H-imidazol-2-yl]-2,2-dimethylpropyl}(glycoloyl)amino]butanamide (2:1)] | 3.72 nM | 20 ×10⁻⁶ cm/s | 22 |
| CC(C)(C)[C@H](c1nc(-c2cc(F)ccc2F)cn1Cc1ccccc1)N(CC[C@H](N)C(=O)NCCNC(=O)CSC[C@H](N)C(=O)O)C(=O)CO.O=C(O)C(F)(F)F [Example 97, S-(2-{[2-({(2S)-2-Amino-4-[{(1R)-1-[1-benzyl-4-(2,5-difluorophenyl)-1H-imidazol-2-yl]-2,2-dimethylpropyl}(glycoloyl)amino]butanoyl}amino)ethyl]amino}-2-oxoethyl)-L-cysteine/trifluoroacetic acid (1:1)] | 2.13 nM | 0.56 ×10⁻⁶ cm/s | 2 |
